Results from patent publication US20250339531A1, “DUX4 POLYPEPTIDES AND NUCLEIC ACIDS FOR TREATING INFLAMMATORY AND AUTOIMMUNE CONDITIONS” (Fred Hutchinson Cancer Center, priority 2021, published 2025).

Columns and labels:
[1] = tested on: de novo protein synthesis; assay: HPG Click-iT labeling of nascent proteins; type: cell-based, human; conditions: FSHD myotubes and SuSa cells co-stained for H3.X/Y
Description: Cells were incubated for 30 minutes in DMEM or RPMI media depleted for methionine and cysteine (Gibco), followed by a 1-hour incubation in methionine-depleted media supplemented with 200 μM HPG (Sigma). Cells were fixed with 4% paraformaldehyde (Electron Microscopy Sciences) diluted in PBS for 10 minutes at room temperature and stained with Click-iT HPG Alexa Fluor 488 Protein Synthesis Assay Kit (Invitrogen) according to manufacturer's protocol.

IDO1 = assay: Immunofluorescence of IFNG-induced IDO1 in FSHD MB200 myotubes; type: cell-based, human; conditions: DUX4-positive versus DUX4-negative FSHD myotubes
Description: All myoblast experiments were conducted in immortalized MB135 or MB200 myoblast cell lines (isolated from a control or FSHD2 subject, respectively cultured in Ham's F-10 Nutrient Mix (Gibco) supplemented with 15% fetal bovine serum (Hyclone), 100 U/100 μg/ml penicillin/streptomycin (Gibco), 1 μM dexamethasone (Sigma), and 10 ng/ml recombinant human basic fibroblast growth factor (PeproTech). To differentiate the myoblasts to myotubes, media was changed to DMEM supplemented with 10 μg/ml insulin (Sigma) and 10 μg/ml transferrin (Sigma). Cell lines containing doxycycline-inducible transgenes were additionally cultured with 2 μg/mL puromycin (Sigma). Transgenes were induced with 1 μg/mL of doxycycline (Sigma) for 4 hours prior to other treatments for a total of 20 hrs. The Kitra-SRS cells (RRID:CVCL_YI69) were provided by Dr. H. Otani and Osaka University (Nakai et al., 2019) and were cultured in DMEM supplemented with 10% fetal bovine serum (Hyclone) and 100 U/100 μg/ml penicillin/streptomycin (Gibco). Biological replicates consisted of independent but parallel experiments, such as simultaneously stimulating three cell culture plates with IFNγ. Technical replicates consisted of repeat measurements of the same biological sample, such as loading the same biological sample in triplicate for analysis by RT-qPCR. […]

“endogenous DUX4: DUX4 expressed endogenously in FSHD myotubes and SuSa cells” was tested, and the “HPG Click-iT signal in cells with endogenous expression” value [1] was “dramatic reduction in HPG Click-iT signal” and the “IFNG induction of IDO1” value (IDO1) was “sufficient to prevent ISG induction by IFNG”.
